For ten molecules, Ki and IC50 results are on record in US5099063A, “Certain phosphinic acid derivatives having antibacterial activity” (Merck & Co., Inc., priority 1990, dated 1992).

The target in the first test is T1, dehydropeptidase-I (renal dipeptidase, EC 3.4.13.11) (Sus scrofa, UniProt P22412).
T1 construct: a solubilized preparation of dipeptidase isolated from hog kidneys; from tissue; host or cells: hog kidney
T1 sequence (P22412 17-409): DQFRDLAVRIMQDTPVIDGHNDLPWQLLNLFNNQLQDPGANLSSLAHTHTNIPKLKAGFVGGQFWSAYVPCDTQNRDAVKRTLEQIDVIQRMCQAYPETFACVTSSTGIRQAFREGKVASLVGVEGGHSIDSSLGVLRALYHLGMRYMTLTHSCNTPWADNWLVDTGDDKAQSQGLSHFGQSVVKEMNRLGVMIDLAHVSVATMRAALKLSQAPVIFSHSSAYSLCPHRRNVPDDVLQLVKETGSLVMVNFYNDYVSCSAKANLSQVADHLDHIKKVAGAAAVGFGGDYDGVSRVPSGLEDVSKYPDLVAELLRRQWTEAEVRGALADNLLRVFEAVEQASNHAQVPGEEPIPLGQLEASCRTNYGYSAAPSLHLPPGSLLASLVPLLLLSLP
The experiment in a line: Renal dehydropeptidase I inhibition (hydrolysis of glycyldehydrophenylalanine). As to conditions: hog kidney dipeptidase, GDP 0.05 mM, MOPS pH 7.1, 37° C.; Ki stated as concentration which achieves 50% inhibition. The format is biochemical. Here is the method: This measured the ability of compounds to inhibit hydrolysis of glycyldehydrophenylalanine (GDP) by a solubilized preparation of dipeptidase isolated from hog kidneys. The procedure is as follows: to a 1 ml system containing 50 mM "MOPS" (3-(N-morpholino)propanesulfonic acid) buffer, pH 7.1, is added 5 μg of lyophilized enzyme, and the test compound at a final concentration of 0.1 mM. After a five minute incubation at 37° C., GDP is added to a final concentration of 0.05 mM. […] Inhibition of the enzyme is gauged by comparison to a standard run containing no inhibitor and is expressed as the inhibitor binding constant, Ki.
`CCCCC(CP(=O)(O)C(C)N)C(=O)O` (racemic) [DL; R2=n-butyl] returned a Ki of 0.004 µM.

In the next test the target is T2, D-Alanyl-D-Alanine ligase (Enterococcus hirae, UniProt Q47827).
T2 sequence (Q47827 1-358): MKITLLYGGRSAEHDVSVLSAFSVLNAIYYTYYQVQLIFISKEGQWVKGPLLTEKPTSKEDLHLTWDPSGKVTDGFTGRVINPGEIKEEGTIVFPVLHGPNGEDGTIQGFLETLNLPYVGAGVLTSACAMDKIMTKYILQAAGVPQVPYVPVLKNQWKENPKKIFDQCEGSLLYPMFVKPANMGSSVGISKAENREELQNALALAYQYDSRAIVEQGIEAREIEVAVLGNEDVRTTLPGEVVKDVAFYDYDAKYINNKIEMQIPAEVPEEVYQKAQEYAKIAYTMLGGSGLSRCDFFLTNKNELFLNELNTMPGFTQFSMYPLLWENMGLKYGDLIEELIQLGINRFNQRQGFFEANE
The experiment in a line: D-Alanyl-D-Alanine ligase in vitro inhibition. The test is classed as biochemical. As to conditions: inhibitor pre-incubated with enzyme 40 minutes at room temperature, then 37° C. for 30 minutes; 0.005M (14C-1)-D-alanine; read-out: D-AlaAla Ligase Inhibition IC50. Here is the method: The ligase enzyme inhibitory activity of compounds of Formula I have been evaluated in vitro with only minor modifications of the procedures of F. C. Neuhaus (Biochemistry 3, 471-480 (1964) and references cited therein) using D-cycloserine as a control and standard ligase inhibitor. The procedure is as follows:
Streptococcus faecalis (ATCC 8043) was grown as described by Neuhaus (J. Biol. Chem., 237:778, 1962). Cell-free extracts were prepared by sonication followed by centrifugation at 27,000×g for 30 minutes. Protein was precipitated with 55% ammonium sulfate. The precipitate was dissolved in 0.05M Tris-Cl buffer (PH 7.0), dialyzed against 0.0025M glutathione and stored in liquid nitrogen. No loss of activity was observed after 1 year.
The assay mixture contained 0.05M Tris-Cl buffer (pH 7.9), 0.01M KCl, 0.008M MgCl2, 0.005M ATP, 0.005M (14C-1)-D-alanine and 5 μof enzyme (specific activity=0.38 units/mg protein). Assay volume was 0.1 ml.
Inhibitors were pre-incubated with enzyme, MgCl2, KCl and buffer, for 40 minutes at room temperature, before addition of ATP and substrate. Samples were subsequently incubated at 37° C. for 30 minutes.
Twenty μl of each sample was applied to the preabsorbent layer of high resolution, pre-channeled silica-gel TLC plates to stop the reaction. Plates were developed in ethanol:ammonium hydroxide: H2 O (11:1:8) for 2-3 hours and the radioactive zones located and integrated with a Berthold Linear Analyzer. […] IC50 's were determined for active compounds (70% inhibition).
For `CC(N)P(=O)(O)C/C(=C/Cc1ccccc1)C(=O)O` (racemic) [DL; R5=benzyl (E isomers)], the 50% inhibitory concentration (IC50) came to 210 µM.
Turning to `CCCCCC=C(CP(=O)(O)C(C)N)C(=O)O` (racemic) [DL; R5=n-pentyl, (E,Z isomers), 1-Aminoethyl-(2-carboxy-oct-2-enyl)phosphinic acid (E/Z mixture)], the IC50 was 700 µM.
Turning to `CCC(CP(=O)(O)[C@@H](C)N)C(=O)O` (stereo partly drawn) [D; R2=ethyl; R3=H, 1-D-Aminoethyl-(2l-carboxy-1-n-butyl)phosphinic acid], the IC50 came out at 45 µM.
The same measure, in the same setting: for `CC(CP(=O)(O)[C@@H](C)N)C(=O)O` (stereo partly drawn) [D; R2=methyl; R3=H, 1-D-Aminoethyl-(2l-carboxy-1-propyl)phosphinic acid] the value was […].
Take `CCCCCCCC(CP(=O)(O)[C@@H](C)N)C(=O)O` (stereo partly drawn) [D; R2=n-heptyl; R3=H, 1-D-Aminoethyl-[2-carboxy-1-nonyl]-phosphinic acid]: the IC50 was 4 µM.
For the molecule `C=C(CP(=O)(O)[C@@H](C)N)C(=O)O` [D; R5=H], the IC50 is 210 µM.
The same measure, in the same setting: for `CC(CP(=O)(O)C(C)N)C(=O)O` (stereo not drawn) [DL; R2=methyl; R3=H, 1-Aminoethyl-(2-carboxy-1-propyl)phosphinic acid] the value was […]; for `COC(=O)C(C)CP(=O)(O)C(C)N` (stereo not drawn) [DL; R2=methyl; R3=methyl, 1-Aminoethyl-(2-carbomethoxy-1-propyl)phosphinic acid], 60 µM.
For the molecule `CC(N)P(=O)(O)CC(CCCc1ccccc1)C(=O)O` (stereo not drawn) [DL; R2=phenylpropyl; R3=H, 1-Aminoethyl-[2-carboxy-5-phenyl-1-n-pentyl]-phosphinic acid], the concentration for half-maximal inhibition (IC50) amounted to 20 µM.
